# In PubChem BioAssay (NCI):
#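 Cultured in 96-well plates, cells were exposed to test compound for 48 hours across five concentrations. TGI: total growth inhibition.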
# Tests used:
# Assay in all cases: DTP human tumour cell line panel, 48 h
# U251 CNS = test system: U251 CNS
# HCC-2998 colon = test system: HCC-2998 colon
# TK-10 renal = test system: TK-10 renal
# HCT-116 colon = test system: HCT-116 colon
# PC-3 prostate = test system: PC-3 prostate
# HT29 colon = test system: HT29 colon
# HOP-92 NSCLC = test system: HOP-92 NSCLC
# EKVX NSCLC = test system: EKVX NSCLC
# SN12C renal = test system: SN12C renal
# COLO 205 colon = test system: COLO 205 colon
# T-47D breast = test system: T-47D breast
# ACHN renal = test system: ACHN renal
SMILES,TGI (U251 CNS) [µM],TGI (HCC-2998 colon) [µM],TGI (TK-10 renal) [µM],TGI (HCT-116 colon) [µM],TGI (PC-3 prostate) [µM],TGI (HT29 colon) [µM],TGI (HOP-92 NSCLC) [µM],TGI (EKVX NSCLC) [µM],TGI (SN12C renal) [µM],TGI (COLO 205 colon) [µM],TGI (T-47D breast) [µM],TGI (ACHN renal) [µM]
CCOC(=O)c1ccc(NC2Oc3cc4c(cc3C(c3cc(OC)c(OC)c(OC)c3)C2C)OCO4)cc1 (stereo not drawn),> 42.5,6.32,99.5,> 51.7,> 100,12.9,32.2,> 100,> 71.5,0.645,> 100,> 63.4
COC(=O)C1Cc2c(C)cccc2C1=O (stereo not drawn),> 100,> 100,> 100,> 100,> 100,> 100,> 100,> 100,> 100,> 100,> 100,> 100
Oc1c(OCc2nnc(CCCCCCCCc3nnc(COc4ccc5ccccc5c4O)n3Nc3ccccc3)n2Nc2ccccc2)ccc2ccccc12,25.5,21.8,> 64.7,24.8,19.2,26.2,32.3,31.6,29.2,1.32,> 100,68.7
CC1C(c2ccc(N(C)C)cc2)c2cc3c(cc2OC1N1CCCC1)OCO3 (stereo not drawn),> 100,> 100,> 100,> 100,> 100,> 81.9,> 100,> 100,> 100,> 100,> 100,> 100
Nc1c(Br)cc(-c2cc(Br)c(N)c(Br)c2)cc1Br,–,> 100,> 100,> 100,> 100,> 100,> 100,> 100,> 100,> 100,> 100,> 100
N#Cc1[nH]c(=O)n(-c2ccc([N+](=O)[O-])cc2)c1N,> 10,> 10,> 10,> 10,> 10,> 10,> 10,> 10,> 10,> 10,> 10,> 10
CCOC(=O)C1(Cc2ccc(C)cc2)Cc2ccc(C)cc2C1=O (stereo not drawn),35.6,> 92.7,> 100,> 60.2,> 100,49.1,> 100,> 100,> 100,> 78.7,> 74.6,> 100
CCC1(O)C=CC(=O)C=C1,34.9,> 100,45.6,> 100,> 62.2,> 100,75.9,> 100,> 100,> 100,67.7,49
O=C(CCSC(CC(=O)c1ccc(Cl)cc1)c1ccc(Cl)cc1)Nc1ccc(Cl)cc1 (stereo not drawn),21.1,27,29.9,18.5,27.1,24.6,32.9,25.4,24.8,35.2,22.2,27.5
CN(NC(=O)c1ccco1)C1=NCCCCN1,> 100,> 100,> 100,> 100,> 100,> 100,> 100,> 100,> 100,> 100,> 100,> 100
N#CC(c1ccc(O)cc1)N1CCN(C(C#N)c2ccc(O)cc2)CC1 (stereo not drawn),51.9,> 100,> 100,> 100,> 100,> 100,60.1,> 76.1,> 100,> 100,> 82.9,> 100
N#Cc1c(-c2ccco2)c2c(n(C3OC(CO)C(O)C(O)C3O)c1=S)CCCC2 (stereo not drawn),–,> 100,> 100,> 100,> 100,> 100,> 100,> 100,> 100,> 100,> 100,> 100
C1=C2SSC3=CC=C(SSc4ccc(s4)SSC4=CC=C(SSC(=C1)S2)S4)S3,> 100,> 100,> 100,> 100,> 100,> 100,> 100,> 100,> 100,> 100,> 100,> 100
COc1cc2c(cc1OC)C(=O)N(c1ccc(O)cc1)C2,> 100,> 100,> 100,> 100,> 100,> 100,> 100,> 100,> 100,> 100,> 100,> 100
O=c1cnn(C2OC(CO)C(O)C(F)C2O)c(=O)[nH]1 (stereo not drawn),> 100,> 100,> 100,> 100,> 100,> 100,> 100,> 100,> 100,> 100,> 100,> 100
COc1ccc2nc3ccc(OC)cc3c(S(=O)Cc3ccc([N+](=O)[O-])cc3)c2c1 (stereo not drawn),> 55.2,34,10.4,3.12,27.6,6.33,> 23.5,32.5,9.94,15.9,4.34,11.2
CCCCCCCCCCCCNC(=O)NCC(OCC)OCC,> 10,> 10,> 10,> 10,> 10,> 10,> 10,> 10,> 10,> 10,> 10,> 10
COc1ccc(C[C@@H]2CN(C(=O)c3ccccc3)[C@H](Cc3ccc(O)cc3)CN2C(=O)c2ccccc2)cc1Br,–,> 100,> 100,> 100,> 100,> 100,> 100,> 100,> 100,> 100,> 100,> 100
